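Five compound concentrations were applied to cells in 96-well plates for 48 hours; endpoints were derived by simple linear interpolation of the resulting dose-response curve. The concentration for 50% growth inhibition is given as GI50. TGI: concentration producing complete growth inhibition.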
Columns and labels:
Assay in all cases: NCI anticancer screen, dose series, 48 h
[1] = tested on: 786-0 renal
[2] = tested on: A498 renal
[3] = tested on: A549 NSCLC
[4] = tested on: ACHN renal
[5] = tested on: BT-549 breast
[6] = tested on: CAKI-1 renal
[7] = tested on: COLO 205 colon
[8] = tested on: DU-145 prostate
[9] = tested on: EKVX NSCLC
[10] = tested on: HCC-2998 colon
[11] = tested on: HCT-116 colon
[12] = tested on: HCT-15 colon
[13] = tested on: HL-60(TB) leukemia
[14] = tested on: HOP-62 NSCLC
[15] = tested on: HOP-92 NSCLC
[16] = tested on: HS 578T breast
[17] = tested on: HT29 colon
[18] = tested on: IGROV1 ovarian
[19] = tested on: K-562 leukemia
[20] = tested on: KM12 colon
[21] = tested on: LOX IMVI melanoma
[22] = tested on: M14 melanoma
[23] = tested on: MALME-3M melanoma
[24] = tested on: MCF7 breast
[25] = tested on: MDA-MB-231 breast
[26] = tested on: MDA-MB-435
[27] = tested on: MDA-MB-468 breast
[28] = tested on: MOLT-4 leukemia
[29] = tested on: NCI-H226 lung
[30] = tested on: NCI-H23 lung
[31] = tested on: NCI-H460 lung
[32] = tested on: NCI-H522 lung
[33] = tested on: OVCAR-3 ovarian
[34] = tested on: OVCAR-4 ovarian
[35] = tested on: OVCAR-5 ovarian
[36] = tested on: OVCAR-8 ovarian
[37] = tested on: PC-3 prostate
[38] = tested on: RXF 393 renal
[39] = tested on: SF-268 CNS
[40] = tested on: SF-295 CNS
[41] = tested on: SF-539 CNS
[42] = tested on: SK-MEL-28 melanoma
[43] = tested on: SK-MEL-5 melanoma
[44] = tested on: SK-OV-3 ovarian
[45] = tested on: SN12C renal
[46] = tested on: SNB-19 CNS
[47] = tested on: SNB-75 CNS
[48] = tested on: SW-620 colon
[49] = tested on: T-47D breast
[50] = tested on: TK-10 renal
[51] = tested on: U251 CNS
[52] = tested on: UACC-257 melanoma
[53] = tested on: UACC-62 melanoma
[54] = tested on: UO-31 renal

Cc1cc(C(F)(F)F)ccc1C(=O)Nc1sc2c(c1C#N)CCC(=O)C2 was tested. Which GI50 [1] did it give?
The GI50 was 3510 nM.

And the TGI [1]?
The TGI was over 100000 nM.

And the GI50 [2]?
The GI50 was 23200 nM.

And the TGI [2]?
Its TGI is 93500 nM.

And the GI50 [3]?
Its GI50 is 3420 nM.

What about the TGI [3] of the same compound?
The TGI was 23100 nM.

What about the GI50 [4] of the same compound?
The GI50 was 1090 nM.

And the TGI [4]?
Its TGI is 2570 nM.

What about the GI50 [5] of the same compound?
The GI50 was 591 nM.

And the TGI [5]?
Its TGI is 3040 nM.

And the GI50 [6]?
The GI50 was 1320 nM.

And the TGI [6]?
The TGI was 2950 nM.

And the GI50 [7]?
Its GI50 is 2030 nM.

What about the TGI [7] of the same compound?
The TGI was 3680 nM.

What about the GI50 [8] of the same compound?
Its GI50 is 3570 nM.

And the TGI [8]?
Its TGI is over 100000 nM.

And the GI50 [9]?
Its GI50 is 2630 nM.

What about the TGI [9] of the same compound?
Its TGI is 12000 nM.

And the GI50 [10]?
Its GI50 is 2730 nM.

What about the TGI [10] of the same compound?
Its TGI is 9210 nM.

What about the GI50 [11] of the same compound?
The GI50 was 411 nM.

And the TGI [11]?
The TGI was 10300 nM.

And the GI50 [12]?
Its GI50 is 552 nM.

What about the TGI [12] of the same compound?
The TGI was 2360 nM.

And the GI50 [13]?
Its GI50 is 448 nM.

And the TGI [13]?
Its TGI is 13700 nM.

What about the GI50 [14] of the same compound?
Its GI50 is 3100 nM.

What about the TGI [14] of the same compound?
Its TGI is over 100000 nM.

What about the GI50 [15] of the same compound?
Its GI50 is 957 nM.

And the TGI [15]?
Its TGI is 2620 nM.

And the GI50 [16]?
The GI50 was 2240 nM.

And the TGI [16]?
Its TGI is 22600 nM.

What about the GI50 [17] of the same compound?
The GI50 was 973 nM.

And the TGI [17]?
The TGI was 3430 nM.

And the GI50 [18]?
The GI50 was 3420 nM.

And the TGI [18]?
Its TGI is 13500 nM.

What about the GI50 [19] of the same compound?
Its GI50 is 240 nM.

And the TGI [19]?
Its TGI is over 100000 nM.

What about the GI50 [20] of the same compound?
The GI50 was 1080 nM.

What about the TGI [20] of the same compound?
The TGI was 5000 nM.

And the GI50 [21]?
The GI50 was 1060 nM.

What about the TGI [21] of the same compound?
Its TGI is 3730 nM.

What about the GI50 [22] of the same compound?
Its GI50 is 1390 nM.

And the TGI [22]?
The TGI was 3610 nM.

What about the GI50 [23] of the same compound?
The GI50 was 1450 nM.

What about the TGI [23] of the same compound?
Its TGI is 3010 nM.

What about the GI50 [24] of the same compound?
Its GI50 is 1780 nM.

What about the TGI [24] of the same compound?
Its TGI is 11300 nM.

What about the GI50 [25] of the same compound?
Its GI50 is 1560 nM.

What about the TGI [25] of the same compound?
The TGI was 3390 nM.

And the GI50 [26]?
Its GI50 is 1880 nM.

And the TGI [26]?
Its TGI is 4340 nM.

And the GI50 [27]?
The GI50 was 1540 nM.

What about the TGI [27] of the same compound?
Its TGI is 5040 nM.

What about the GI50 [28] of the same compound?
The GI50 was 619 nM.

What about the TGI [28] of the same compound?
The TGI was 12300 nM.

And the GI50 [29]?
Its GI50 is 2830 nM.

And the TGI [29]?
The TGI was 18500 nM.

And the GI50 [30]?
The GI50 was 1710 nM.

And the TGI [30]?
The TGI was 6500 nM.

And the GI50 [31]?
The GI50 was 3160 nM.

And the TGI [31]?
The TGI was 69600 nM.

What about the GI50 [32] of the same compound?
Its GI50 is 288 nM.

And the TGI [32]?
The TGI was 1010 nM.

And the GI50 [33]?
Its GI50 is 1400 nM.

What about the TGI [33] of the same compound?
The TGI was 3240 nM.

And the GI50 [34]?
The GI50 was 1250 nM.

And the TGI [34]?
Its TGI is 2940 nM.

And the GI50 [35]?
Its GI50 is 2020 nM.

And the TGI [35]?
The TGI was 5940 nM.

What about the GI50 [36] of the same compound?
Its GI50 is 1800 nM.

What about the TGI [36] of the same compound?
Its TGI is 27300 nM.

What about the GI50 [37] of the same compound?
The GI50 was 333 nM.

And the TGI [37]?
Its TGI is 3280 nM.

What about the GI50 [38] of the same compound?
The GI50 was 659 nM.

What about the TGI [38] of the same compound?
The TGI was 3090 nM.

What about the GI50 [39] of the same compound?
Its GI50 is 2830 nM.

What about the TGI [39] of the same compound?
The TGI was 20500 nM.

What about the GI50 [40] of the same compound?
Its GI50 is 2010 nM.

And the TGI [40]?
Its TGI is 5910 nM.

And the GI50 [41]?
The GI50 was 496 nM.

And the TGI [41]?
Its TGI is 1900 nM.

What about the GI50 [42] of the same compound?
The GI50 was 1240 nM.

What about the TGI [42] of the same compound?
The TGI was 2620 nM.

And the GI50 [43]?
Its GI50 is 1540 nM.

What about the TGI [43] of the same compound?
The TGI was 2960 nM.

And the GI50 [44]?
The GI50 was 9210 nM.

What about the TGI [44] of the same compound?
Its TGI is 28500 nM.

What about the GI50 [45] of the same compound?
Its GI50 is 1640 nM.

What about the TGI [45] of the same compound?
The TGI was 10900 nM.

And the GI50 [46]?
The GI50 was 3910 nM.

What about the TGI [46] of the same compound?
Its TGI is over 100000 nM.

What about the GI50 [47] of the same compound?
The GI50 was 1030 nM.

And the TGI [47]?
Its TGI is 6740 nM.

What about the GI50 [48] of the same compound?
Its GI50 is 504 nM.

What about the TGI [48] of the same compound?
The TGI was 2570 nM.

And the GI50 [49]?
Its GI50 is 453 nM.

And the TGI [49]?
Its TGI is 2520 nM.

What about the GI50 [50] of the same compound?
The GI50 was 1590 nM.

What about the TGI [50] of the same compound?
The TGI was 24900 nM.

What about the GI50 [51] of the same compound?
Its GI50 is 2250 nM.

And the TGI [51]?
Its TGI is 13200 nM.

And the GI50 [52]?
The GI50 was 1900 nM.

What about the TGI [52] of the same compound?
Its TGI is 5280 nM.

What about the GI50 [53] of the same compound?
The GI50 was 1220 nM.

And the TGI [53]?
The TGI was 2670 nM.

And the GI50 [54]?
The GI50 was 1120 nM.

What about the TGI [54] of the same compound?
Its TGI is 2380 nM.

Reference: PubChem BioAssay (NCI)
